This is an account of results in ChEMBL document CHEMBL3868595, “Plazomicin is effective in a non-human primate pneumonic plague model” (Bioorg Med Chem, 2016).

Molecules are shown by their SMILES.

Series [1] concerns African green monkey. Nature of the series: Toxicity in African green monkey 7337 model infected with Yersinia pestis Colorado 92 assessed as serum lactate dehydrogenase level at 25 mg/kg, iv administered within 6 hrs post onset of sustained fever as 30 mins infusion for 10 days (reference value: 310 IU/L). Format: organism-based. The following applies: chlorocebus sabaeus, in vivo.

Series [2] has as its system African green monkey. Kind of series: Toxicity in African green monkey 7653 model infected with Yersinia pestis Colorado 92 assessed as serum creatinine level at 25 mg/kg, iv administered within 6 hrs post onset of sustained fever as 30 mins infusion for 10 days (reference value: 0.6 mg/dl). Format: organism-based. The following applies: chlorocebus sabaeus, in vivo.

Series [3] deals with African green monkey. Nature of the series: Toxicity in African green monkey B6291 model infected with Yersinia pestis Colorado 92 assessed as serum gamma glutamyl-transferase level at 25 mg/kg, iv administered within 6 hrs post onset of sustained fever as 30 mins infusion for 10 days (reference value: 77 IU/L). The class given is organism-based. The following applies: chlorocebus sabaeus, in vivo.

Series [4] concerns Yersinia pestis. Kind of series: Antibacterial activity against Yersinia pestis Colorado 92 infected in African green monkey B6988 model assessed as bacterial burden in brain at 6.25 mg/kg, iv administered within 6 hrs post onset of sustained fever as 30 mins infusion for 5 days (reference value: 1.9 10^6CFU/g). The class given is functional, CO92.
Series [5] has as its system Yersinia pestis. Nature of the series: Antibacterial activity against Yersinia pestis Colorado 92 infected in African green monkey C2149 model assessed as bacterial burden in liver at 6.25 mg/kg, iv administered within 6 hrs post onset of sustained fever as 30 mins infusion for 5 days (reference value: 5.2 10^8CFU/g). The class given is functional, CO92.
Series [6] relates to Yersinia pestis. Nature of the series: Antibacterial activity against Yersinia pestis Colorado 92 infected in African green monkey C2083 model assessed as bacterial burden in kidney at 12.5 mg/kg, iv administered within 6 hrs post onset of sustained fever as 30 mins infusion for 5 days (reference value: 7.1 10^7CFU/g). The class given is functional, CO92.
The test system of series [7] is African green monkey. Nature of the series: Toxicity in African green monkey B6127 model infected with Yersinia pestis Colorado 92 assessed as dehydration at 25 mg/kg, iv administered within 6 hrs post onset of sustained fever as 30 mins infusion for 10 days. Format: organism-based. The following applies: chlorocebus sabaeus, in vivo.
Series [8] has as its system Yersinia pestis. Nature of the series: Antibacterial activity against Yersinia pestis Colorado 92 infected in African green monkey B6783 model assessed as bacterial burden in kidney at 12.5 mg/kg, iv administered within 6 hrs post onset of sustained fever as 30 mins infusion for 5 days (reference value: 7.1 10^7CFU/g). The class given is functional, CO92.
Series [9] in a line: Clearance in African green monkey blood at 25 mg/kg administered as iv infusion twice daily for 7 consecutive days measured on day 1 by LC-MS/MS analysis. The class given is ADME, organism-based. The following applies: chlorocebus aethiops.
Series [10] relates to Yersinia pestis. Nature of the series: Antibacterial activity against Yersinia pestis Colorado 92 infected in African green monkey B6436 model assessed as bacterial burden in tracheobronchial lymph nodes at 25 mg/kg, iv administered within 6 hrs post onset of sustained fever as 30 mins infusion for 5 days (reference value: 7.7 10^9CFU/g). Format: functional, CO92, Lymph node.

Series [11] deals with Yersinia pestis. Kind of series: Antibacterial activity against Yersinia pestis Colorado 92 infected in African green monkey B6889 model assessed as bacterial burden in tracheobronchial lymph nodes at 6.25 mg/kg, iv administered within 6 hrs post onset of sustained fever as 30 mins infusion for 5 days (reference value: 7.7 10^9CFU/g). The class given is functional, CO92, Lymph node.

For series [12], the system named is African green monkey. Kind of series: Toxicity in African green monkey 7643 model infected with Yersinia pestis Colorado 92 assessed as serum lactate dehydrogenase level at 25 mg/kg, iv administered within 6 hrs post onset of sustained fever as 30 mins infusion for 10 days (reference value: 278 IU/L). The settings on record: chlorocebus sabaeus, in vivo. The class given is organism-based.

Series [13] concerns African green monkey. Nature of the series: Toxicity in African green monkey B6408 model infected with Yersinia pestis Colorado 92 assessed as serum lactate dehydrogenase level at 25 mg/kg, iv administered within 6 hrs post onset of sustained fever as 30 mins infusion for 10 days (reference value: 249 IU/L). Format: organism-based. The settings on record: chlorocebus sabaeus, in vivo.

Series [14] concerns Yersinia pestis. Kind of series: Antibacterial activity against Yersinia pestis Colorado 92 infected in African green monkey B6861 model assessed as bacterial burden in liver at 6.25 mg/kg, iv administered within 6 hrs post onset of sustained fever as 30 mins infusion for 5 days (reference value: 5.2 10^8CFU/g). The class given is functional, CO92.
Series [15] is described as follows: Cmax in African green monkey blood at 25 mg/kg administered as iv infusion twice daily for 7 consecutive days measured on day 7 by LC-MS/MS analysis. Format: ADME, organism-based. The following applies: chlorocebus aethiops. More on the design: dose 25 mg/kg, route intravenous.
Series [16] has as its system Yersinia pestis. Kind of series: Antibacterial activity against Yersinia pestis Colorado 92 infected in African green monkey 8047 model assessed as bacterial burden in kidney at 6.25 mg/kg, iv administered within 6 hrs post onset of sustained fever as 30 mins infusion for 10 days (reference value: 7.1 10^7CFU/g). Format: functional, CO92.
Series [17] in a line: Elimination half life in African green monkey blood at 35 mg/kg administered as iv infusion twice daily for 7 consecutive days measured on day 7 by LC-MS/MS analysis. The class given is ADME, organism-based. The settings on record: chlorocebus aethiops, read-out: beta t1/2 (converted).
In series [18] the test system is African green monkey. Kind of series: Toxicity in African green monkey B6408 model infected with Yersinia pestis Colorado 92 assessed as serum creatinine level at 25 mg/kg, iv administered within 6 hrs post onset of sustained fever as 30 mins infusion for 10 days (reference value: 0.5 mg/dl). The class given is organism-based. The following applies: chlorocebus sabaeus, in vivo.

Series [19] has as its system African green monkey. Nature of the series: Toxicity in African green monkey 7643 model infected with Yersinia pestis Colorado 92 assessed as serum alanine aminotransferase level at 25 mg/kg, iv administered within 6 hrs post onset of sustained fever as 30 mins infusion for 10 days (reference value: 53 IU/L). The settings on record: chlorocebus sabaeus, in vivo. The class given is organism-based.

Series [20] concerns African green monkey. Nature of the series: Toxicity in African green monkey 7643 model infected with Yersinia pestis Colorado 92 assessed as blood urea nitrogen level at 25 mg/kg, iv administered within 6 hrs post onset of sustained fever as 30 mins infusion for 10 days (reference value: 16 mg/dl). The class given is organism-based. The settings on record: chlorocebus sabaeus, in vivo.

The subject of series [21] is Yersinia pestis. Kind of series: Antibacterial activity against Yersinia pestis Colorado 92 infected in African green monkey B6436 model assessed as bacterial burden in kidney at 25 mg/kg, iv administered within 6 hrs post onset of sustained fever as 30 mins infusion for 5 days (reference value: 7.1 10^7CFU/g). Format: functional, organism-based. The following applies: CO92.

One may read the clearance as a measure of how efficiently the substance is removed, as volume per time. As usually defined, the Cmax is the highest concentration seen after dosing. Take `CN[C@@H]1[C@@H](O)[C@@H](O[C@@H]2[C@@H](O)[C@H](O[C@H]3OC(CNCCO)=CC[C@H]3N)[C@@H](N)C[C@H]2NC(=O)[C@@H](O)CCN)OC[C@]1(C)O` [PLAZOMICIN]: the Activity in series [1] stood at 469 IU/L; in series [2], 0.8 mg/dL; in [3], 102 IU/L; in series [4], 11 CFU/g; in series [5] it was 1 ×10⁶ CFU/g; in series [6], 3.1 ×10⁶ CFU/g. In addition, the Activity entry is on record as “Toxic” in series [7]; 76 CFU/g in series [8]; 30 CFU/g in series [10]; 3.6 ×10⁹ CFU/g in [11]; 606 IU/L in series [12]; 304 IU/L in series [13]. The Activity was 16 CFU/g in [14]; 32 CFU/g in series [16]; 0.4 mg/dL in series [18]; 43 IU/L in [19]; 19 mg/dL in series [20]; “Below limit of detection” in series [21]. In series [9], this molecule gave a clearance of 2.17 mL/min/kg. Also, in series [15], the highest level (Cmax) was 106 µg/mL. Besides, the half-life in series [17] was 1.7 h.
